Source: patent EP4144350B1, “TREATMENT OR PREVENTION OF VASCULAR MALFORMATION” (Universitätsmedizin Greifswald, priority 2021, dated 2023)

Assays:
CCM3^+/+ CI-huVECs = assay: CyQuant cell proliferation assay combined with mutant allele frequencies, co-culture (wild-type cells); type: cell-based, human; details: six days
Description: Clonally expanded CI-huVEC lines with biallelic loss-of-function variants in the first coding exon of CCM3 have been described before or were established according to a published CRISPR/Cas9 genome editing protocol. Blood outgrowth endothelial cells (BOECs) were cultured in EGM-2 medium (Lonza, Basel, Switzerland) supplemented with 18 % FCS. With the approval of the local ethics committee (University Medicine Greifswald, Germany; No.: BB 047/14a), CCM1^-/- BOECs had been established previously from CCM1^+/- BOECs of a CCM1 mutation carrier with CRISPR/Cas9 genome editing. Mutant and wild-type ECs were co-cultured in 96-well plates under standard culture conditions with the indicated mutant-to-wild-type ratios. 2500 cells were seeded per well. The proliferation rate of mutant and wild-type ECs in monoculture was quantified with the CyQuant® Cell Proliferation Assay Kit (C7026, Thermo Fisher Scientific). To discriminate the proliferation rates of CCM3^+/+ and CCM3^-/- CI-huVEC in co-culture, the CyQuant® Cell Proliferation Assay results were combined with mutant allele frequencies that had been determined by amplicon deep sequencing. To analyse their sensitivity to apoptosis, mutant and wild-type ECs were seeded in 96-well plates with 15.000 cells per well, and treated with staurosporine ([…], Sigma-Aldrich, St. Louis, MO, USA) 24 h later. […]

CI-huVECs = assay: Bright-field microscopy of EC morphology after compound treatment; type: cell-based, human; details: library screening follow-up (Fig. 14)
[1] = test system: CCM3^+/+ and CCM3^-/- CI-huVECs; assay: Cell viability after compound treatment; type: cell-based, human; details: 72 h after treatment (Fig. 15)
CCM3^-/- CI-huVECs = assay: Cell cycle analysis by flow cytometry; type: cell-based, human; details: 10 µM, 72 h; DMSO 75.9 %
Description: Plating efficiencies were determined as follows: CCM3^+/+ and CCM3^-/- CI-huVEC were seeded in 6-well-plates with either 100 or 250 cells per well. Colonies fixed and stained after eight days with a solution of glutaraldehyde (G6257, Sigma-Aldrich, final concentration 6 %) and crystal violet (HT901, Sigma-Aldrich, final concentration 0.5 %). The plating efficiency was defined as the ratio between the number of colonies and the number of plated cells. A cell cycle analysis kit (MAK344, Sigma-Aldrich) was used to determine cell cycle profiles by flowcytometry (LSRII Flow Cytometer System, BD Biosciences, San Jose, CA, USA). One day after plating, cells were synchronised for 24 h with ECGM supplemented with 0.1 % FCS. Prior to FACS analysis, cells were incubated with ECGM + 10 % FCS for another 24 h or treated with 10 µM NSC59984 for 72 h. Data were analysed with FlowJo v10.7.1 (BD Biosciences).

[2] = test system: CCM1^-/- BOECs in co-culture with CCM1^+/- BOECs; assay: Co-culture of patient-specific BOECs, frequency of second knockout allele; type: cell-based, human; details: 10 µM (Fig. 23)
Description: Clonally expanded CI-huVEC lines with biallelic loss-of-function variants in the first coding exon of CCM3 have been described before or were established according to a published CRISPR/Cas9 genome editing protocol. Blood outgrowth endothelial cells (BOECs) were cultured in EGM-2 medium (Lonza, Basel, Switzerland) supplemented with 18 % FCS. With the approval of the local ethics committee (University Medicine Greifswald, Germany; No.: BB 047/14a), CCM1^-/- BOECs had been established previously from CCM1^+/- BOECs of a CCM1 mutation carrier with CRISPR/Cas9 genome editing. Mutant and wild-type ECs were co-cultured in 96-well plates under standard culture conditions with the indicated mutant-to-wild-type ratios. 2500 cells were seeded per well.
The fraction of mutant alleles in co-culture were analysed by amplicon deep sequencing or T7EI cleavage assay. In brief, genomic target regions were first amplified by PCR. For T7E1 cleavage assays, heteroduplexes were formed and digested with T7EI enzyme (New England Biolabs, Frankfurt am Main, Germany). Cleavage products were visualised by gel electrophoresis and analysed with the Image Lab software (v6.0, Bio-Rad, Hercules, CA, USA). For NGS analysis, sequencing adapters and individual barcodes were introduced in a second round of PCR [7]. […] The data were analysed with the SeqNext software (JSI Medical Systems, Ettenheim, Germany).

colon-tumour xenografts = details: cited from earlier work

CN1CCN(C(=O)/C=C/c2ccc([N+](=O)[O-])o2)CC1 [NSC59984, (E)-1-(4-methylpiperazin-1-yl)-3-(5-nitrofuran-2yl)prop-2-en-1-one]
Proliferation rate of wild-type ECs (CCM3^+/+ CI-huVECs; 10 µM): 295% | Proliferation rate of wild-type ECs (CCM3^+/+ CI-huVECs; starting value of the decrease, concentration not printed (by parallel 1 µM)): 761% | EC morphology / endothelial phenotype (CI-huVECs): minimal effects on EC morphology | Cell viability differences between CCM3^+/+ and CCM3^-/- CI-huVECs [1]: No cell viability differences | Cells in G0/G1 (G0/G1 arrest) (CCM3^-/- CI-huVECs): 87.7% | Expansion of CCM1^-/- BOECs in co-culture [2]: significantly blocked the expansion of CCM1^-/- BOECs | Adverse effects in xenograft mice (colon-tumour xenografts): Without apparent adverse effects | Growth of colon-tumour xenografts (colon-tumour xenografts; mice): repressed the growth of colon-tumour xenografts in mice
